{
  "source": "patent US10603298B2",
  "about": "“Succinate dehydrogenase inhibitors (SDHi's)” (Medical Research Council, priority 2014, dated 2020)",
  "key": {"[1]": {"experiment": "Malonate level in the ischaemic myocardium after i.v. dimethyl malonate (LC-MS)", "set-up": "species or system mouse", "conditions": "intravenous infusion of dimethyl malonate in vivo", "procedure": "In addition, as shown in FIG. 5a the cell permeability of the compound may be determined by comparing the level of the compound in an untreated cell with that of a treated cell. Typically, the level of the compound may be determined using LC/MS as detailed in the metabolomic analysis in the Examples.\nInfarct size was assessed after 30 min of ischaemia followed by 120 min reperfusion using 2% triphenyltetrazolium chloride staining and is expressed as a percentage of the risk zone^33. […] Control mice were infused with sterile saline. The total volume administered never exceeded 200 μL/mouse.\nEqual amounts wet weight murine tissue were lysed in 250 μL extraction solution (ES; 30% acetonitrile, 50% methanol and 20% water) per 10 mg tissue in Precellysis 24 vials, following the manufacturer's instructions. […] For the LC separation, column A was Sequant Zic-Hilic (150 mm×4.6 mm, internal diameter 3.5 μm) with a guard column (20 mm×2.1 mm 3.5 μm) from HiChrom, Reading, UK. […] Gradient: 0-3 min 80% B, 25 min 20% B, 26 min 80% B, 36 min 80% B. Column B was sequant Zic-pHilic (150 mm×2.1 mm i.d. 3.5 μm) with guard column (20 mm×2.1 mm i.d. […]) from HiChrom, Reading, UK. […] Spectra were analysed using both targeted and untargeted approaches. […] The arrays of spectra were then statistically analysed using the functions explore.data and univariate of the R package mum a^40."}, "[2]": {"test_system": "succinate accumulation in the ischaemic myocardium", "experiment": "Succinate accumulation in the ischaemic myocardium in vivo (LC-MS)", "conditions": "i.v. infusion in vivo, mouse; 30 min ischaemia", "procedure": "For the in vivo heart IR model an open-chest, in situ heart model was used^31,32. Male mice (8-10 weeks; Charles River Laboratories, UK) were anaesthetised with sodium pentobarbital (70 mg/kg intraperitoneally (i.p.)), intubated endotracheally and ventilated with 3 cm H2O positive-end expiratory pressure. Adequacy of anaesthesia was monitored using corneal and withdrawal reflexes. Ventilation frequency was kept at 110 breaths per minute with tidal volume between 125-150 μL. A thoracotomy was performed and the heart exposed by stripping the pericardium. A prominent branch of the left anterior descending coronary artery (LAD) was surrounded by a 7-0 Prolene suture that was then passed through a small plastic tube. Ischaemia was induced by tightening the tubing against the heart surface. To assess metabolites during IR in vivo, mice were divided into three groups: 30 min ischaemia, 30 min ischaemia plus 5 min reperfusion and 30 min sham-operation in which the suture was placed but the LAD was not occluded. At the end of each protocol tissue was removed from the at risk and peripheral areas of the heart, selected visually by comparing white versus red tissue, and snap-frozen in liquid nitrogen. Sham-operated tissue was removed from the presumed risk zone. Infarct size was assessed after 30 min of ischaemia followed by 120 min reperfusion using 2% triphenyltetrazolium chloride staining and is expressed as a percentage of the risk zone^33. […] For the LC separation, column A was Sequant Zic-Hilic (150 mm×4.6 mm, internal diameter 3.5 μm) with a guard column (20 mm×2.1 mm 3.5 μm) from HiChrom, Reading, UK. […] (150 mm×2.1 mm i.d. 3.5 μm) with guard column (20 mm×2.1 mm i.d. […]) from HiChrom, Reading, UK. […] Spectra were analysed using both targeted and untargeted approaches. For the targeted approach spectra were analysed using XCalibur Qual Browser and XCalibur Quan Browser softwares (Thermo Scientific) by referencing to an internal library of compounds. […] The arrays of spectra were then statistically analysed using the functions explore.data and univariate of the R package mum a^40."}},
  "data": [
    {"smiles": "COC(=O)CC(=O)OC", "note": "[dimethyl malonate]", "values": [
      {"measurement": "accumulation of malonate in the ischaemic myocardium", "setting": "[1]", "result": "results in accumulation of malonate"},
      {"measurement": "succinate accumulation in the ischaemic myocardium", "setting": "[2]", "result": "strikingly decreased succinate accumulation"}
    ]}
  ]
}
